Experimental data published in article PMC12320299 (Chemical Science, 2025).

Experiments:
[1] = Total 101Ru content in tumour, organs and blood by ICP-MS; format: in vivo, BALB/c mice; settings: 4 h after last injection, 10 mg kg^−1 i.p.
Description: Furthermore, tumour, organs and blood of the 1a-treated mice were collected 4 h after the last injection. […] Intraperitoneally administered compounds are primarily absorbed through the portal circulation, which can lead to a substantial liver exposure.[71] […] This paralleled earlier findings of other metal(arenes) in this tumour model.[72]
Animals. All experiments were carried out with male Balb/c mice according to the regulation of the Ethics Committee for the Care and Use of Laboratory Animals at the Medical University Vienna (BMWF-2022-0.770.291), the guidelines from the Austrian Animal Science Association and the Federation of European Laboratory Animal Science Associations (FELASA). The animals were kept in a pathogen-free conditions, controlled environment with 12 h light–dark cycle with ad libitum access to food and water. Every procedure was done in a laminar airflow […]
Treatment. CT-26 cells ([…] in 50 μL serum-free medium) were injected subcutaneously (s.c.) into the right flank of ten– to eleven-week-old male Balb/c mice. Three days after cell injection, all compounds (dissolved in 10% DMSO in water) were administered […]
1b/2b. Regarding anticancer activity experiments, mice were treated on 5 consecutive days over 2 weeks. Four hours after the last treatment 1a-treated mice were sacrificed and analysed for ruthenium levels in tissue via ICP-MS measurements. […]
Missing data points were imputed. Permutation-based FDR was set to 0.05 and S0 = 0.1 for multi-parameter corrected significance testing of protein regulation. […]
Resources (Version 6.8)13 and STRING (Version 10.0).14
Additionally, statistical analysis of protein regulations from the in vivo samples was performed using the LIMMA R-package.15 P-values where adjusted according to Benjamini-Hochberg16 and a gene set variation analysis was performed (GSVA).17 Protein Sets where constructed using the molecular signature database.18
Total metal content in organs harvested from 1a-treated mice was determined by inductively coupled plasma mass spectrometry (ICP-MS) on an Agilent 7800 instrument and Agilent SPS 4 autosampler using the following parameters: RF power 1550, carrier gas (Ar) 1.08 L∙min-1, plasma gas (Ar) 15 L∙min-1, dwell time 0.1 s, 12 replicates with 100 sweeps. A […]
by Agilent MassHunter (Version C.01.04) software.
The lower limit of quantification of the method was 0.071 µg L-1. Organs, tumour and blood were digested with nitric acid (20% w/w) and diluted with ultrapure water to reach a final nitric acid concentration <4%.

[2] = Reactivity by NMR with 9-ethylguanine and methionine or cysteine; format: physicochemical; settings: 1 mM, equimolar nucleophiles, D2O/20% DMSO, up to 24 h
Description: Nevertheless, they are activated by hydrolysis of the most labile M–O bond (Fig. 2C).[48] Further hydrolysis releases the NQ ligand, because the free hemiaminal-containing NQ is unstable and the presence of biological nucleophiles accelerated NQ release.[48] […] The samples were analysed on a 500 MHz NMR spectrometer after 0 h, 1.5 h and 24 h. […] The aromatic proton of 9-ethylguanine was consistently found at 7.6 ppm.

CCC1=C2[O][Ru][O]C2(n2cccn2)c2ccccc2C1=O.Cc1ccc(C(C)C)cc1 (centres unmarked) [Compound 1a, [(3-ethyl-4-oxo-(pyrazolyl)-dihydronaphthalene)(cymene)ruthenium(II)]]
101Ru content, blood clot [1]: < 0.4 mg/kg | 101Ru content, blood serum [1]: < 0.4 mg/kg | 101Ru content, liver [1]: 10 ± 1 mg/kg | 101Ru content, tumour [1]: 0.9 ± 0.7 mg/kg | stability by NMR [2]: remained remarkably stable
